The structures appear in SMILES notation.

Here are results for 18 compounds from the Deep4Chem optical property database.

This data set can be described thus: solvent given as SMILES.

Compound `c1ccc(C(=C(c2ccccc2)c2ccc(-c3ccc(-c4nc5c(-c6ccc(-c7ccc(C(=C(c8ccccc8)c8ccccc8)c8ccccc8)cc7)cc6)sc(-c6ccc(-c7ccc(C(=C(c8ccccc8)c8ccccc8)c8ccccc8)cc7)cc6)c5nc4-c4ccc(-c5ccc(C(=C(c6ccccc6)c6ccccc6)c6ccccc6)cc5)cc4)cc3)cc2)c2ccccc2)cc1` gave an emission maximum (in Cc1ccccc1) of 637 nm and an emission maximum (in ClCCl) of 647 nm.
`O=C1/C(=C2\Nc3cc4ccc5cccc6ccc(c3C2=O)c4c56)Nc2cc3ccc4cccc5ccc(c21)c3c45` returned an emission maximum (in C1CCOC1) of 707 nm.
Take `CN(C)c1ccc(/C=C/c2nc3ccc(N(C)C)cc3oc2=O)cc1`: the emission maximum amounted to 521 nm (in C1CCCCC1); 581 nm (in C1COCCO1); 650 nm (in CC#N); 626 nm (in CC(C)=O); 649.5 nm (in CC(O)CO); 519 nm (in CCCCCCC). In addition, the emission maximum reads like this: (in CCO) 666 nm; (in CCOC(C)=O) 587 nm; (in CN(C)C=O) 650 nm; (in CS(C)=O) 666 nm; (in Cc1ccccc1) 567 nm; (in ClC(Cl)Cl) 627 nm. The emission maximum stood at 619 nm (in ClCCl) and 659 nm (in OCC(O)CO).
In the case of `COc1cccc(-n2c(-c3ccc(O)cc3)nc(C)c2C)c1`, the emission maximum came out at 368 nm (in C1COCCO1); 364 nm (in CC#N); 370 nm (in CCCCCC); 371 nm (in CCCCO); 372 nm (in CCO); 368 nm (in CCOC(C)=O). Also, the emission maximum runs as follows: (in CO) 369 nm; (in ClC(Cl)Cl) 372 nm; (in ClCCl) 369 nm; (in c1ccccc1) 371 nm.
Consider `N#Cc1cccc2ccccc12`, for which the emission maximum (in Cc1ccccc1) is listed as 341.02 nm.
For `c1ccc2c(c1)Sc1ccccc1N2c1ccc2c(ccc3nc4ccc5cc(N6c7ccccc7Sc7ccccc76)ccc5c4nc32)c1`, the emission maximum runs as follows: (in C1CCCCC1) 543 nm; (in Cc1ccccc1) 657 nm.
The compound `c1cc2cc(c1)c1ccc3ccc4ccc(cc4c3c1)c1ccc3ccc4ccc(cc4c3c1)c1cccc2c1` came in with an emission maximum (in Cc1ccccc1) of 414 nm.
`c1ccc2c(c1)oc1nc3oc4ccc(-n5c6ccccc6c6ccccc65)cc4c3cc12` gave an emission maximum (in ClC(Cl)Cl) of 448 nm.
Turning to `CC(C)(C)c1cc2c3cc(C(C)(C)C)c(-c4cc5cc6c7cccc8cccc(c9cc(C(C)(C)C)cc(c5cc4C(C)(C)C)c96)c87)cc3cc3c4cccc5cccc(c(c1)c23)c54`, the emission maximum (in CC1CCCCC1) came out at 454 nm.
`c1ccc(-c2nc3cc4c(cc3n2-c2ccccc2)nc(-c2ccccc2)n4-c2ccccc2)cc1`: for the setting “in CC#N”, the emission maximum was determined as 397 nm.
Compound `CCCCC(CC)COc1ccc2nc(-c3ccc(-c4ccccc4)s3)sc2c1` (configuration not stated) gave an emission maximum (in ClCCl) of 423 nm.
Consider `C=CCNc1ccc2ccc3oc4cc(=[N+](C)C)ccc-4nc3c2c1`, for which the emission maximum reads like this: (in CC#N) 637 nm; (in CCO) 631 nm; (in ClCCl) 620 nm; (in O) 650 nm.
Consider `O=P1(c2ccccc2)c2ccc(N3c4ccccc4Sc4ccccc43)cc2-c2cc(N3c4ccccc4Sc4ccccc43)ccc21`, for which the emission maximum worked out at 559 nm (in Cc1ccccc1) and 555 nm (in c1ccc2c(c1)c1ccccc1n2-c1ccc(-c2ccc(-n3c4ccccc4c4ccccc43)cc2)cc1).
Regarding `Cc1cccc(C2=Cc3ccc4ccccc4[n+]3[B-](F)(F)O2)c1`, the emission maximum (in ClC(Cl)Cl) turned out to be 440 nm.
The compound `c1ccc2c(c1)-c1ccccc1C21c2ccccc2-c2cnccc21` came in with an emission maximum (in CC1CCCO1) of 318 nm.
`COC(=O)c1ccc(/C=C2\N=C(c3ccc([N+](=O)[O-])cc3)NC2=O)cc1` returned an emission maximum (in C1COCCO1) of 510 nm.
For `FC(F)(F)c1ccc(B2c3ccccc3Nc3ccccc32)c(C(F)(F)F)c1`, the emission maximum (in ClCCl) amounted to 407 nm.
In the case of `CCN(CC)c1ccc(-c2ccc(-c3nc4ccccc4c(=O)[nH]3)s2)cc1`, the emission maximum was 541 nm (in CC#N) and 490 nm (in Cc1ccccc1).
